Assay results taken from ChEMBL document CHEMBL1135297, “Enantioselective synthesis of S-(+)-2beta-carboalkoxy-3alpha-[bis(4-fluorophenyl)methoxy]tropanes as novel probes for the dopamine transporter” (Bioorg Med Chem Lett, 2002).
pIC50, pKi: −log10 of the molar value.

Columns and labels:
[1] = target: Norepinephrine transporter (Rattus norvegicus, UniProt Q9WTR4); test: Ability to displace [3H]-nisoxatine radioligand for the Norepinephrine transporter in rat brain; type: tissue-based
[2] = target: T1, Muscarinic acetylcholine receptor M1 (Rattus norvegicus, UniProt P08482); test: Ability to displace [3H]pirenzepine radioligand for the Muscarinic acetylcholine receptor M1 in rat brain; type: tissue-based
T1 sequence (P08482 whole entry): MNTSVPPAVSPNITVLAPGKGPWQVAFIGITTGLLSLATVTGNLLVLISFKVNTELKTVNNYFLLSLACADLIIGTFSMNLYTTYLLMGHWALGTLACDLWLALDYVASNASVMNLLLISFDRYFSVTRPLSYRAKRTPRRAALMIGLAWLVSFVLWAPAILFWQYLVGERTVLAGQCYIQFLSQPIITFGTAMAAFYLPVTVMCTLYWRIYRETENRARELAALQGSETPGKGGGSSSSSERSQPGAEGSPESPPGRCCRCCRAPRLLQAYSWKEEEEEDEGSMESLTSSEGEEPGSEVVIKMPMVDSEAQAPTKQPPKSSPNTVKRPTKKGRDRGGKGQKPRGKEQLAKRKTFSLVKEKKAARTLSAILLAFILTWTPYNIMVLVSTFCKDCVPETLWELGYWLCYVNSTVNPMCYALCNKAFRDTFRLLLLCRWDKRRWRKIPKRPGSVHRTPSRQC

Rattus norvegicus = species: Rattus norvegicus; test: Inhibition of [3H]DA uptake in rat synaptosomes; type: functional, Brain
[3] = target: Sodium-dependent dopamine transporter (Rattus norvegicus, UniProt P23977); test: Ability to displace [3H]WIN-35 radioligand for the dopamine transporter 428 DAT in rat brain; type: tissue-based
[4] = target: Sodium-dependent serotonin transporter (Rattus norvegicus, UniProt P31652); test: Ability to displace [3H]citalopram radioligand, for the Serotonin transporter in rat brain; type: tissue-based
Chain of Sodium-dependent serotonin transporter (P31652 whole entry): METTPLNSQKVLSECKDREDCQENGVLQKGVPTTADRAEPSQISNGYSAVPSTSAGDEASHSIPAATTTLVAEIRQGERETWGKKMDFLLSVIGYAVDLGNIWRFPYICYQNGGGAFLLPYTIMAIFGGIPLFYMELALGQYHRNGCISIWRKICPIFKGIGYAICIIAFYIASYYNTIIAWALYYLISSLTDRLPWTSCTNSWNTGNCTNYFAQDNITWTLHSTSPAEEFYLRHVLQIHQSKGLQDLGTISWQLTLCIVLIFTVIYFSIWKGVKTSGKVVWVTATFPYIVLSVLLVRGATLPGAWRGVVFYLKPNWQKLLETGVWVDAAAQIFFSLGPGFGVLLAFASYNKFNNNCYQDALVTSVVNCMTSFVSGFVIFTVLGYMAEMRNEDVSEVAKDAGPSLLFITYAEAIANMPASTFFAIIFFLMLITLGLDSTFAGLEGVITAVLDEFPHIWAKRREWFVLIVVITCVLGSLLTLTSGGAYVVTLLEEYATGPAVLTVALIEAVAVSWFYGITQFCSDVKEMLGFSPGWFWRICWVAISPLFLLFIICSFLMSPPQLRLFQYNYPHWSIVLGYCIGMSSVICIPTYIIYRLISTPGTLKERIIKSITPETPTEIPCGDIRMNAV

Chain of Sodium-dependent dopamine transporter (P23977 whole entry): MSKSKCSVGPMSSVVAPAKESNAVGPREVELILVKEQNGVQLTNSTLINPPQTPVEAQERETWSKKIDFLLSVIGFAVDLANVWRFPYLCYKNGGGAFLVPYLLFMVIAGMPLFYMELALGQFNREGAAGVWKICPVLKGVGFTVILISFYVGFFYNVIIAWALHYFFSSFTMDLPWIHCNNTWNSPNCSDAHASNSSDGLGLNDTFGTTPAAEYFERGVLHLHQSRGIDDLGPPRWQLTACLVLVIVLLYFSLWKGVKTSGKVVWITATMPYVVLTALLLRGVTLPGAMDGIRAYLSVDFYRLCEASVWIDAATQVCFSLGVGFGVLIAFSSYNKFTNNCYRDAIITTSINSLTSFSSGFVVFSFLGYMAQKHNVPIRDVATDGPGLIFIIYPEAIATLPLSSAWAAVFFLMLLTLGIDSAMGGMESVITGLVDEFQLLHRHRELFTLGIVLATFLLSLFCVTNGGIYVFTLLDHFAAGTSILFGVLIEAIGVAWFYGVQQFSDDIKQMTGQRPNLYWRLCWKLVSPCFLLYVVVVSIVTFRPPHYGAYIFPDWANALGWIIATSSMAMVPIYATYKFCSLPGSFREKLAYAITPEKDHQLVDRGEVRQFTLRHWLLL
Chain of Norepinephrine transporter (Q9WTR4 whole entry): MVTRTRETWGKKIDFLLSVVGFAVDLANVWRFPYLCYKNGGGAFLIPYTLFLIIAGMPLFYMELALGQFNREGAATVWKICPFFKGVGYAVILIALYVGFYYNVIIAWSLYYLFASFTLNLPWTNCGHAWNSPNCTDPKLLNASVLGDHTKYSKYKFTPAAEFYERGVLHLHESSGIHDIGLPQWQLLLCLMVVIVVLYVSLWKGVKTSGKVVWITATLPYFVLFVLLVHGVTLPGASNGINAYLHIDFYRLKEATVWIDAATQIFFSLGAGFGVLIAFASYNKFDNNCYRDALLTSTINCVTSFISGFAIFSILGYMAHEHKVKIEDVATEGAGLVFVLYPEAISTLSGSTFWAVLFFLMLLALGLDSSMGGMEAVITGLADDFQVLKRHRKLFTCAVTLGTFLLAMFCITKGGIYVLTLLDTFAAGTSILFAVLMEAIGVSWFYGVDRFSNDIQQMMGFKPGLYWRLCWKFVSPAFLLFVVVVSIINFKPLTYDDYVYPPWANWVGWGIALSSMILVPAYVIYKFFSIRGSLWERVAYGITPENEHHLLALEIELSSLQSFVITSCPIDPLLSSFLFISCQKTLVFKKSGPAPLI

## CN1C2CCC1C(C(=O)OCc1ccccc1)C(OC(c1ccc(F)cc1)c1ccc(F)cc1)C2 (racemic)
[1]
  pKi: 5.39
[2]
  pKi: 5.29
Rattus norvegicus
  pIC50: 8.46
[3]
  pKi: 7.04
[4]
  pKi: 5.48

## CC(C)OC(=O)C1C(OC(c2ccc(F)cc2)c2ccc(F)cc2)CC2CCC1N2C (single isomer, unassigned; (+))
[1]
  pKi: 6.19
[2]
  pKi: 5.57
Rattus norvegicus; Rattus norvegicus, Brain
  pIC50: 8.21
[3]
  pKi: 7.63
[4]
  pKi: 4.92

## COC(=O)C1C(OC(c2ccc(F)cc2)c2ccc(F)cc2)CC2CCC1N2C (racemic)
[1]
  pKi: 6.32
[2]
  pKi: 6.52
Rattus norvegicus
  pIC50: 8.54
[3]
  pKi: 7.67
[4]
  pKi: 5.76

## CCOC(=O)C1C(OC(c2ccc(F)cc2)c2ccc(F)cc2)CC2CCC1N2C (racemic)
[1]
  pKi: 5.99
[2]
  pKi: 5.73
Rattus norvegicus; Rattus norvegicus, Brain
  pIC50: 8.44
[3]
  pKi: 7.58
[4]
  pKi: 5.43

## CN1C2CCC1C(C(=O)OCc1ccccc1)C(OC(c1ccc(F)cc1)c1ccc(F)cc1)C2 (stereo unspecified)
[1]
  pKi: 5.65
[2]
  pKi: 5.36
Rattus norvegicus; Rattus norvegicus, Brain
  pIC50: 8.66
[3]
  pKi: 7.40
[4]
  pKi: 5.69

## CC(C)OC(=O)C1C(OC(c2ccc(F)cc2)c2ccc(F)cc2)CC2CCC1N2C (racemic)
[1]
  pKi: 5.70
[2]
  pKi: 5.12
Rattus norvegicus
  pIC50: 8.17
[3]
  pKi: 7.31
[4]
  pKi: 4.86

## CCOC(=O)C1C(OC(c2ccc(F)cc2)c2ccc(F)cc2)CC2CCC1N2C (single isomer, unassigned; (+))
[1]
  pKi: 6.20
[2]
  pKi: 5.72
[3]
  pKi: 7.77
[4]
  pKi: 5.73

## CN1C2CCC1CC(OC(c1ccc(F)cc1)c1ccc(F)cc1)C2 (stereo unspecified) [DIFLUOROBENZTROPINE]
[1]
  pKi: 6.21
[4]
  pKi: 5.49

## COC(=O)C1C(OC(c2ccc(F)cc2)c2ccc(F)cc2)CC2CCC1N2C (single isomer, unassigned; (+))
[1]
  pKi: 6.57
[2]
  pKi: 6.88
Rattus norvegicus; Rattus norvegicus, Brain
  pIC50: 8.82
[3]
  pKi: 7.89
[4]
  pKi: 6.16
